Experimental data taken from patent US20120295887A1, “PHARMACEUTICALLY ACCEPTABLE SALTS OF PYRROLO-NITROGENOUS HETEROCYCLIC DERIVATIVES, PREPARATION METHOD AND MEDICAL USE THEREOF” (SHANGHAI HENGRUI PHARMACEUTICAL CO., LTD., priority 2010, published 2012).
Structures can show the parent of a compound that is named as a salt. Where two headings read alike, the source gives them in different places.

Legend:
[1] = Solubility assay in physiological saline; assay type: physicochemical; details: conclusion in words
Protocol: According to the conventional solubility measurement, the solubility of the compound of formula (I) and salts thereof were determined in physiological saline.

[2] = Pharmacokinetics assay in rats (intragastric and tail vein administration, plasma LC/MS/MS); assay type: in vivo; details: for F (oral absolute bioavailability) / bioavailability: intragastric 10 mg/kg (calculated by the base part), from AUC0-t vs tail vein injection; for Cmax: 0.5% CMC-Na suspension; for bioavailability: read-out: F (oral absolute bioavailability)
Protocol: The rats were used as experimental animals. The compound of formula (I) and other salts thereof were administrated intragastrically, the maleate of the compound of formula (I) was injected into the tail vein to determine the drug concentration in plasma at different time points by LC/MS/MS method. The pharmacokinetic behavior, characteristics and the oral absolute bioavailability of the compounds in the present invention were studied and evaluated in rats.
The compound of formula (I), compounds of Example 1˜5.
28 healthy adult SD rats, male and female in half, were divided into 7 groups (4 rats in each group) and purchased from SINO-BRITSH SIPPR/BK LAB. ANIMAL LTD., CO, License number: SCXK (Shanghai) 2008-0016.
The intravenous injection administration group: the suitable amount of compounds were weighted, added into physiological saline and diluted to the final volume. The sample concentration was 1.0 mg/mL.
The intragastrical administration group: the suitable amount of compounds were weighted and added into 0.5% CMC-Na to prepare 1.0 mg/mL suspension by using ultrasound device. The sample should be prepared freshly away from light at the time of use.
28 healthy adult SD rats, male and female in half, were divided into 7 groups (4 rats in each group). After an overnight fast, the compound of Example 1, at a dose of 10 mg/kg (calculated by the base part), at a volume of 10 mL/kg, was administered intragastrically or injected into the tail vein.
For the intravenous injection administration group, blood samples (0.2 mL) were taken from orbital sinus at pre administration and at 2 minutes, 15 minutes, 30 minutes, 1.0 hour, 2.0 hours, 4.0 hours, 6.0 hours, 8.0 hours, 12.0 hours, 24.0 hours and 36.0 hours post administration, stored in heparinized tubes and centrifuged for 10 minutes at 3,500 rpm. The plasma samples were stored at −20° C.
For the intragastrical administration group, blood samples were taken at pre administration and at 0.5, 1.0, 2.0, 3.0, 4.0, 6.0, 8.0, 12.0, 24.0 and 36.0 hours post administration. The method to treat the samples was the same with the intravenous injection administration group. The rats were fed 2 hours after administration.
25 μL of rat plasmas taken at various time points after administration were mixed with 20 μL of internal standard solution and […] of methanol for 2 minutes by using a vortexer and the mixture was centrifuged for 10 minutes at 16,000 rpm. 10 pt of the supernatant was analyzed by LC-MS/MS.
25 μL of rat blank plasmas were mixed with a series of standard solutions respectively to obtain plasma concentration of 1.00, 2.00, 5.00, 25.0, 100, 500, 2000 and 5000 ng/mL. 20 μL of internal standard solution and 150 μL of methanol were added and then the mixture was operated according to “plasma sample pretreatment” method. Plasma concentration was used as the abscissa, the ratio of chromatographic peak area between the sample and internal standard was used as the ordinate, the linear regression was carried out by the weighted least square method (w=1/x^2) to obtain the typical standard curve equation.
Compartment model fitting was carried out on the pharmacokinetic behavior of the tested compounds to calculate the main pharmacokinetic parameters, wherein the measured values were taken for Cmax and tmax. Oral absolute bioavailability was calculated according to AUC0-t after intragastrical administration and intravenous injection at tail vein.

[3] = Solubility in conventional solvents (inventor's finding); assay type: physicochemical; details: in words
Description: It is necessary to develop new forms of the compound of formula (I) to improve its solubility and pharmacokinetic absorption, which can be used in conventional preparation of dosage forms.

[4] = SD rats, intragastric 10 mg/kg, maleate
[5] = both sexes, Sprague-Dawley (SD), rat, plasma, iv, 10 mg/kg, Vein (tail vein injection) 10 mg/kg, read-out: MRT
[6] = both sexes, Sprague-Dawley (SD), rat, plasma, iv, Vein (tail vein injection) 10 mg/kg
[7] = both sexes, Sprague-Dawley (SD), rat, plasma, iv, Vein (tail vein injection) 10 mg/kg in physiological saline, read-out: AUC0-t
[8] = both sexes, Sprague-Dawley (SD), rat, plasma, po, 10 mg/kg, intragastric 10 mg/kg
[9] = both sexes, Sprague-Dawley (SD), rat, plasma, po, 10 mg/kg
[10] = both sexes, Sprague-Dawley (SD), rat, plasma, po, 10 mg/kg, intragastric 10 mg/kg, read-out: Cmax
[11] = both sexes, Sprague-Dawley (SD), rat, plasma, po, 10 mg/kg, intragastric 10 mg/kg, read-out: AUC0-t
[12] = both sexes, Sprague-Dawley (SD), rat, plasma, po, 10 mg/kg, intragastric 10 mg/kg, read-out: MRT
[13] = both sexes, Sprague-Dawley (SD), rat, plasma, po, 10 mg/kg, intragastric 10 mg/kg, read-out: Tmax
[14] = SD rats, Vein (tail vein injection) 10 mg/kg

SMILES	MRT [2, 5]	half-life [2, 6]	AUC(0-t) [2, 7]	CL/F [2, 8]	half-life [2, 8]	bioavailability [2, 9]	Cmax [2, 10]	AUC(0-t) [2, 11]	MRT [2, 12]	Tmax [2, 13]	other results
Cc1c(/C=C2\C(=O)Nc3ccc(F)cc32)[nH]c2c1C(=O)N(C[C@H](O)CN1CCOCC1)CCC2 [Example 1, (R,Z)-2-(5-fluoro-2-oxo-1,2-dihydro-indol-3-ylidenemethyl)-5-(2-hydroxy-3-morpholin-4-yl-propyl)-3-methyl-5,6,7,8-tetrahydro-1H-pyrrolo[3,2-c]azepin-4-one maleate]	–	–	–	–	–	–	–	–	–	–	solubility compared with free base and other salts of the compound of formula (I) [1]: Conclusion: Compared with free base and other salts of the compound of formula (I), the solubility of maleate of the compound of formula (I) has significantly improved.; F (oral absolute bioavailability) ([2]; SD rats, maleate): 48.2%; Cmax [2, 4]: 950 ± 370 ng/mL; AUC(0-t) [2, 4]: 7770 ± 2990 ng·h/mL; MRT [2, 4]: 6.66 ± 2.05 h; Tmax [2, 4]: 5.75 ± 2.06 h; t1/2 [2, 4]: 3.01 ± 0.60 h
Cc1c(/C=C2\C(=O)Nc3ccc(F)cc32)[nH]c2c1C(=O)N(C[C@H](O)CN1CCOCC1)CCC2.O=C(O)C[C@H](O)C(=O)O [Example 2, (R,Z)-2-(5-fluoro-2-oxo-1,2-dihydro-indol-3-ylidenemethyl)-5-(2-hydroxy-3-morpholin-4-yl-propyl)-3-methyl-5,6,7,8-tetrahydro-1H-pyrrolo[3,2-c]azepin-4-one malate]	1.4 ± 0.35 h	5.97 ± 2.5 h	16100 ± 3970 ng·h/mL	29.8 mL/min/kg	3.13 ± 0.97 h	30.4%	850 ± 390 ng/mL	4900 ± 2790 ng·h/mL	4.29 ± 1.87 h	1.75 ± 1.66 h	–
CC(O)C(=O)O.Cc1c(/C=C2\C(=O)Nc3ccc(F)cc32)[nH]c2c1C(=O)N(C[C@H](O)CN1CCOCC1)CCC2 [Example 3, (R,Z)-2-(5-fluoro-2-oxo-1,2-dihydro-indol-3-ylidenemethyl)-5-(2-hydroxy-3-morpholin-4-yl-propyl)-3-methyl-5,6,7,8-tetrahydro-1H-pyrrolo[3,2-c]azepin-4-one lactate]	1.4 ± 0.35 h	5.97 ± 2.5 h	16100 ± 3970 ng·h/mL	27.3 mL/min/kg	3.06 ± 1.21 h	36.6%	810 ± 450 ng/mL	5900 ± 3350 ng·h/mL	6.28 ± 1.56 h	2.5 ± 1 h	–
Cc1c(/C=C2\C(=O)Nc3ccc(F)cc32)[nH]c2c1C(=O)N(C[C@H](O)CN1CCOCC1)CCC2 [Example 4, (R,Z)-2-(5-fluoro-2-oxo-1,2-dihydro-indol-3-ylidenemethyl)-5-(2-hydroxy-3-morpholin-4-yl-propyl)-3-methyl-5,6,7,8-tetrahydro-1H-pyrrolo[3,2-c]azepin-4-one mesylate]	1.4 ± 0.35 h	5.97 ± 2.5 h	16100 ± 3970 ng·h/mL	24.8 mL/min/kg	3.41 ± 0.85 h	–	770 ± 390 ng/mL	7300 ± 5870 ng·h/mL	6.68 ± 1.58 h	–	F (oral absolute bioavailability) ([2]; SD rats, mesylate): 45.3%; Tmax ([2]; SD rats, intragastric 10 mg/kg, mesylate): 3.75 ± 1.71 h
Cc1c(/C=C2\C(=O)Nc3ccc(F)cc32)[nH]c2c1C(=O)N(C[C@H](O)CN1CCOCC1)CCC2.Cl [Example 5, (R,Z)-2-(5-fluoro-2-oxo-1,2-dihydro-indol-3-ylidenemethyl)-5-(2-hydroxy-3-morpholin-4-yl-propyl)-3-methyl-5,6,7,8-tetrahydro-1H-pyrrolo[3,2-c]azepin-4-one hydrochloride]	1.4 ± 0.35 h	–	–	33.8 mL/min/kg	3.6 ± 0.52 h	25.2%	500 ± 100 ng/mL	4070 ± 1630 ng·h/mL	6.8 ± 1.58 h	4.25 ± 2.06 h	half-life ([2]; both sexes, Sprague-Dawley (SD), rat, plasma, iv, 10 mg/kg, Vein (tail vein injection) 10 mg/kg): 5.97 ± 2.5 h; AUC(0-t) ([2]; both sexes, Sprague-Dawley (SD), rat, plasma, iv, 10 mg/kg, Vein (tail vein injection) 10 mg/kg in physiological saline, read-out: AUC0-t): 16100 ± 3970 ng·h/mL
Cc1c(/C=C2\C(=O)Nc3ccc(F)cc32)[nH]c2c1C(=O)N(C[C@H](O)CN1CCOCC1)CCC2 [The compound of formula (I), (R,Z)-2-(5-fluoro-2-oxo-1,2-dihydro-indol-3-ylidenemethyl)-5-(2-hydroxy-3-morpholin-4-yl-propyl)-3-methyl-5,6,7,8-tetrahydro-1H-pyrrolo[3,2-c]azepin-4-one]	–	–	–	–	–	–	–	–	–	–	MRT [2, 14]: 1.40 ± 0.35 h; t1/2 [2, 14]: 5.97 ± 2.50 h; AUC(0-t) ([2]; SD rats, Vein (tail vein injection) 10 mg/kg in physiological saline): 16120 ± 3970 ng·h/mL; AUC(0-t) ([2]; SD rats, intragastric 10 mg/kg): 4490 ± 2790 ng·h/mL; MRT ([2]; SD rats, intragastric 10 mg/kg): 5.24 ± 2.23 h; Tmax ([2]; SD rats, intragastric 10 mg/kg): 2.00 ± 1.41 h; t1/2 ([2]; SD rats, intragastric 10 mg/kg): 3.31 ± 0.57 h; F (oral absolute bioavailability) ([2]; SD rats): 27.9%; Cmax ([2]; SD rats, intragastric 10 mg/kg): 640 ± 240 ng/mL; solubility in conventional solvents [3]: poorly soluble
